According to patent publication US9113629B2, “4-amino-6-(4-substituted-phenyl)-picolinates and 6-amino-2-(4-substituted-phenyl)-pyrimidine-4-carboxylates and their use as herbicides” (DOW AGROSCIENCES LLC, priority 2013, dated 2015):
Like-named read-outs stand apart in the source and are kept apart here.

Legend:
[1] = test system: Key Grass and Sedge Weeds as well as Grass Crops; test: Post-emergent Test II herbicidal activity (Table 6); assay type: in vivo; conditions: post-emergence, 336 h; for pest or weed control at 70 g/ha: 70 g ai/ha; for pest or weed control at 140 g/ha: 140 g ai/ha
Outline: (§1)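 Injury was rated visually 14 d after treatment on a 0–100% scale against untreated controls. Test compounds, formulated with crop oil concentrate and surfactant and serially diluted down to 1/16× of the top rate, were applied by track sprayer at 187 L/ha onto first- to second-true-leaf seedlings.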

[2] = test system: Key Broadleaf Weed and Crop Species; test: Post-emergent Test II herbicidal activity (Table 5); assay type: in vivo; conditions: post-emergence, 336 h, 14 days after application; for pest or weed control at 70 g/ha: application rate 70 g ai/ha; for pest or weed control at 140 g/ha: application rate 140 g ai/ha
Outline: as §1

[3] = CYPES: yellow nutsedge (Cyperus esculentus), read-out: Visual Growth Reduction (%) 14 Days After Application, CYPES
[4] = DIGSA: crabgrass (Digitaria sanguinalis), read-out: Visual Growth Reduction (%) 14 Days After Application, DIGSA
[5] = ECHCG: barnyardgrass (Echinochloa crus-galli), read-out: Visual Growth Reduction (%) 14 Days After Application, ECHCG
[6] = ORYSA: rice (Oryza sativa), crop, read-out: Visual Growth Reduction (%) 14 Days After Application, ORYSA
[7] = SETFA: giant foxtail (Setaria faberi), read-out: Visual Growth Reduction (%) 14 Days After Application, SETFA
[8] = SORVU: grain sorghum (Sorghum vulgare), read-out: Visual Growth Reduction (%) 14 Days After Application, SORVU
[9] = TRZSS (wheat, Triticum aestivum), crop, read-out: Visual Growth Reduction (%) 14 Days After Application, TRZSS
[10] = ZEAMX: maize, corn (Zea mays), crop, read-out: Visual Growth Reduction (%) 14 Days After Application, ZEAMX
[11] = ABUTH: velvetleaf (Abutilon theophrasti), read-out: Visual Growth Reduction (%) 14 Days After Application, ABUTH
[12] = AMARE: redroot pigweed (Amaranthus retroflexus), read-out: Visual Growth Reduction (%) 14 Days After Application, AMARE
[13] = BRSNN: oilseed-rape, canola (Brassica napus), read-out: Visual Growth Reduction (%) 14 Days After Application, BRSNN
[14] = CHEAL: lambsquarters (Chenopodium album), read-out: Visual Growth Reduction (%) 14 Days After Application, CHEAL
[15] = EPHHL: wild poinsettia (Euphorbia heterophylla), read-out: Visual Growth Reduction (%) 14 Days After Application, EPHHL
[16] = HELAN: sunflower (Helianthus annuus), read-out: Visual Growth Reduction (%) 14 Days After Application, HELAN
[17] = VIOTR: wild pansy (Viola tricolor), read-out: Visual Growth Reduction (%) 14 Days After Application, VIOTR

Row | Structure (SMILES) | pest or weed control at 70 g/ha [1, 3] | pest or weed control at 140 g/ha [1, 3] | pest or weed control at 70 g/ha [1, 4] | pest or weed control at 140 g/ha [1, 4] | pest or weed control at 70 g/ha [1, 5] | pest or weed control at 140 g/ha [1, 5] | pest or weed control at 70 g/ha [1, 6] | pest or weed control at 140 g/ha [1, 6] | pest or weed control at 70 g/ha [1, 7] | pest or weed control at 140 g/ha [1, 7] | pest or weed control at 70 g/ha [1, 8] | pest or weed control at 140 g/ha [1, 8] | pest or weed control at 70 g/ha [1, 9] | pest or weed control at 140 g/ha [1, 9] | pest or weed control at 70 g/ha [1, 10] | pest or weed control at 140 g/ha [1, 10] | pest or weed control at 70 g/ha [2, 11] | pest or weed control at 140 g/ha [2, 11] | pest or weed control at 70 g/ha [2, 12] | pest or weed control at 140 g/ha [2, 12] | other results
1 | COC(=O)c1nc(-c2ccc(I)c(F)c2)c(F)c(N)c1Cl [Compound 132] | 45 to 59% | 85 to 94% | 85 to 94% | 85 to 94% | 85 to 94% | 75 to 84% | 0 to 29% | 0 to 29% | 0 to 29% | 60 to 74% | 85 to 94% | 95 to 100% | 0 to 29% | 30 to 44% | 95 to 100% | 95 to 100% | 95 to 100% | 95 to 100% | 95 to 100% | 95 to 100% | pest or weed control at 70 g/ha [2, 13]: 95 to 100%; pest or weed control at 140 g/ha [2, 13]: 95 to 100%; pest or weed control at 70 g/ha [2, 14]: 95 to 100%; pest or weed control at 140 g/ha [2, 14]: 95 to 100%; pest or weed control at 70 g/ha [2, 15]: 95 to 100%; pest or weed control at 140 g/ha [2, 15]: 95 to 100%; pest or weed control at 70 g/ha [2, 16]: 95 to 100%; pest or weed control at 140 g/ha [2, 16]: 95 to 100%; pest or weed control at 70 g/ha [2, 17]: 95 to 100%; pest or weed control at 140 g/ha [2, 17]: 95 to 100%; melting point: 138 to 140 °C
2 | C#Cc1ccc(-c2nc(C(=O)OC)c(Cl)c(N)c2F)cc1F [Compound 133, methyl 4-amino-3-chloro-6-(4-ethynyl-3-fluorophenyl)-5-fluoropicolinate] | 30 to 44% | 45 to 59% | 0 to 29% | 60 to 74% | 0 to 29% | 60 to 74% | 0 to 29% | 0 to 29% | 45 to 59% | 75 to 84% | 60 to 74% | 75 to 84% | 30 to 44% | 30 to 44% | 95 to 100% | 95 to 100% | 85 to 94% | 95 to 100% | 75 to 84% | 75 to 84% | pest or weed control at 70 g/ha [2, 13]: 75 to 84%; pest or weed control at 140 g/ha [2, 13]: 95 to 100%; pest or weed control at 70 g/ha [2, 14]: 95 to 100%; pest or weed control at 140 g/ha [2, 14]: 95 to 100%; pest or weed control at 70 g/ha [2, 15]: 85 to 94%; pest or weed control at 140 g/ha [2, 15]: 95 to 100%; pest or weed control at 70 g/ha [2, 16]: 95 to 100%; pest or weed control at 140 g/ha [2, 16]: 95 to 100%; pest or weed control at 70 g/ha [2, 17]: 0 to 29%; pest or weed control at 140 g/ha [2, 17]: 30 to 44%; melting point: 141 to 143 °C
3 | Nc1c(F)c(-c2ccc(C(F)(F)F)c(F)c2)nc(C(=O)O)c1Cl [Compound 134] | 95 to 100% | 95 to 100% | 75 to 84% | 85 to 94% | 95 to 100% | 95 to 100% | 45 to 59% | 45 to 59% | 95 to 100% | 95 to 100% | 85 to 94% | 85 to 94% | 60 to 74% | 75 to 84% | 45 to 59% | 60 to 74% | 85 to 94% | 85 to 94% | 85 to 94% | 95 to 100% | pest or weed control at 70 g/ha [2, 13]: 95 to 100%; pest or weed control at 140 g/ha [2, 13]: 95 to 100%; pest or weed control at 70 g/ha [2, 14]: 95 to 100%; pest or weed control at 140 g/ha [2, 14]: 95 to 100%; pest or weed control at 70 g/ha [2, 15]: 95 to 100%; pest or weed control at 140 g/ha [2, 15]: 95 to 100%; pest or weed control at 70 g/ha [2, 16]: 95 to 100%; pest or weed control at 140 g/ha [2, 16]: 95 to 100%; pest or weed control at 70 g/ha [2, 17]: 95 to 100%; pest or weed control at 140 g/ha [2, 17]: 95 to 100%; melting point: 124 to 126 °C
4 | Nc1c(F)c(-c2ccc(I)c(F)c2F)nc(C(=O)O)c1Cl [Compound 141, 4-amino-3-chloro-6-(2,3-difluoro-4-iodophenyl)-5-fluoropicolinic acid] | 0 to 29% | 95 to 100% | 75 to 84% | 75 to 84% | 85 to 94% | 95 to 100% | 0 to 29% | 0 to 29% | 75 to 84% | 95 to 100% | 85 to 94% | 85 to 94% | 60 to 74% | 60 to 74% | 95 to 100% | 95 to 100% | 85 to 94% | 85 to 94% | 95 to 100% | 95 to 100% | pest or weed control at 70 g/ha [2, 13]: 95 to 100%; pest or weed control at 140 g/ha [2, 13]: 95 to 100%; pest or weed control at 70 g/ha [2, 14]: 85 to 94%; pest or weed control at 140 g/ha [2, 14]: 85 to 94%; pest or weed control at 70 g/ha [2, 15]: 95 to 100%; pest or weed control at 140 g/ha [2, 15]: 95 to 100%; pest or weed control at 70 g/ha [2, 16]: 95 to 100%; pest or weed control at 140 g/ha [2, 16]: 95 to 100%; pest or weed control at 70 g/ha [2, 17]: 95 to 100%; pest or weed control at 140 g/ha [2, 17]: 95 to 100%; melting point: 155 to 157 °C
